According to article PMC5218480 (PLoS ONE, 2017):

Test system: MV-4-11 cells
Assay: Gene expression microarray analysis (Affymetrix PrimeView) and GSEA
Assay type: cell-based, human
Set-up: RFU PODN (11730768_x_at) / Fold change /veh PODN (11730768_x_at) / RFU LINC00158 (11744669_a_at) / Fold change /veh LINC00158 (11744669_a_at) / RFU DUSP10 (11751237_a_at) / Fold change /veh DUSP10 (11751237_a_at) / RFU ID3 (11757404_x_at) / Fold change /veh ID3 (11757404_x_at) / RFU PLEKHG5 (11737974_s_at) / Fold change /veh PLEKHG5 (11737974_s_at) / RFU LRRC4B (11730491_at) / Fold change /veh LRRC4B (11730491_at) / RFU GIMAP4 (11747438_a_at) / Fold change /veh GIMAP4 (11747438_a_at) / RFU KRT8 (11758183_x_at) / Fold change /veh KRT8 (11758183_x_at) / RFU CNN1 (11734310_a_at) / Fold change /veh CNN1 (11734310_a_at) / RFU VPS37D (11726825_at) / Fold change /veh VPS37D (11726825_at) / RFU C10orf10 (11716522_x_at) / Fold change /veh C10orf10 (11716522_x_at) / RFU KIR2DL2 /// KIR2DL4 /// KIR2DL5A /// KIR2DL5B /// KIR2DS1 /// KIR2DS2 /// KIR2DS3 /// KIR2DS4 /// KIR3DL3 /// KIR3DL3 /// KIR3DS1 (11738374_at) / Fold change /veh KIR2DL2 /// KIR2DL4 /// KIR2DL5A /// KIR2DL5B /// KIR2DS1 /// KIR2DS2 /// KIR2DS3 /// KIR2DS4 /// KIR3DL3 /// KIR3DL3 /// KIR3DS1 (11738374_at) / RFU C1QL1 (11718748_at) / Fold change /veh C1QL1 (11718748_at) / RFU TMPRSS4 (11747572_a_at) / Fold change /veh TMPRSS4 (11747572_a_at) / RFU HAMP (11756126_x_at) / Fold change /veh HAMP (11756126_x_at) / RFU RNFT2 (11725882_a_at) / Fold change /veh RNFT2 (11725882_a_at) / RFU NR4A2 (11747474_a_at) / Fold change /veh NR4A2 (11747474_a_at) / RFU ABCC12 (11746883_a_at) / Fold change /veh ABCC12 (11746883_a_at) / RFU TMEM136 (11760407_x_at) / Fold change /veh TMEM136 (11760407_x_at) / RFU CLDN22 /// WWC2 (11732394_at) / Fold change /veh CLDN22 /// WWC2 (11732394_at) / RFU HLA-DPB1 (11760878_x_at) / Fold change /veh HLA-DPB1 (11760878_x_at) / RFU SPINT1 (11716480_a_at) / Fold change /veh SPINT1 (11716480_a_at) / RFU GAP43 (11754022_s_at) / Fold change /veh GAP43 (11754022_s_at) / RFU A4GNT (11735810_at) / Fold change /veh A4GNT (11735810_at) / RFU PRB3 (11715151_x_at) / Fold change /veh PRB3 (11715151_x_at) / RFU TUBB4B (11761932_at) / Fold change /veh TUBB4B (11761932_at) / RFU CAPN14 (11732068_a_at) / Fold change /veh CAPN14 (11732068_a_at) / RFU TMCC2 (11721928_a_at) / Fold change /veh TMCC2 (11721928_a_at) / RFU IRGQ (11745062_a_at) / Fold change /veh IRGQ (11745062_a_at) / RFU FAM174B (11720279_a_at) / Fold change /veh FAM174B (11720279_a_at) / RFU TMPRSS4 (11748680_a_at) / Fold change /veh TMPRSS4 (11748680_a_at) / RFU FAM212B (11763350_a_at) / Fold change /veh FAM212B (11763350_a_at) / RFU PLEKHG5 (11743358_a_at) / Fold change /veh PLEKHG5 (11743358_a_at) / RFU ZSCAN30 (11745921_a_at) / Fold change /veh ZSCAN30 (11745921_a_at) / RFU CMKLR1 (11741424_a_at) / Fold change /veh CMKLR1 (11741424_a_at) / RFU LOC101060620 /// MAPK8IP1 (11723275_at) / Fold change /veh LOC101060620 /// MAPK8IP1 (11723275_at) / RFU SPTSSB (11747773_x_at) / Fold change /veh SPTSSB (11747773_x_at) / RFU PRSS12 (11739890_at) / Fold change /veh PRSS12 (11739890_at) / RFU BIN1 (11741810_x_at) / Fold change /veh BIN1 (11741810_x_at) / RFU WNT11 (11732464_a_at) / Fold change /veh WNT11 (11732464_a_at) / RFU C10orf10 (11716521_a_at) / Fold change /veh C10orf10 (11716521_a_at) / RFU C5orf56 (11738089_at) / Fold change /veh C5orf56 (11738089_at) / RFU CYB561 (11721691_x_at) / Fold change /veh CYB561 (11721691_x_at) / RFU ANKRD19P (11752326_a_at) / Fold change /veh ANKRD19P (11752326_a_at) / RFU OR2T12 /// OR2T33 /// OR2T8 (11738714_s_at) / Fold change /veh OR2T12 /// OR2T33 /// OR2T8 (11738714_s_at) / RFU VCAN (11748164_a_at) / Fold change /veh VCAN (11748164_a_at) / RFU JSRP1 (11732532_at) / Fold change /veh JSRP1 (11732532_at) / RFU KRTAP10-11 (11738290_x_at) / Fold change /veh KRTAP10-11 (11738290_x_at) / RFU MYO3A (11730013_a_at) / Fold change /veh MYO3A (11730013_a_at) / RFU EBF3 (11725865_a_at) / Fold change /veh EBF3 (11725865_a_at) / RFU CAMK2N1 (11719241_x_at) / Fold change /veh CAMK2N1 (11719241_x_at) / RFU C5orf56 (11738088_a_at) / Fold change /veh C5orf56 (11738088_a_at) / RFU OLFML3 (11715873_a_at) / Fold change /veh OLFML3 (11715873_a_at) / RFU LOC100653217 /// NTM (11731650_a_at) / Fold change /veh LOC100653217 /// NTM (11731650_a_at) / RFU MAPK11 (11762145_a_at) / Fold change /veh MAPK11 (11762145_a_at) / RFU FIZ1 (11724087_x_at) / Fold change /veh FIZ1 (11724087_x_at) / RFU OASL (11726364_x_at) / Fold change /veh OASL (11726364_x_at) / RFU SOX15 (11748057_x_at) / Fold change /veh SOX15 (11748057_x_at) / RFU CD79A (11719716_a_at) / Fold change /veh CD79A (11719716_a_at) / RFU HIST1H1D (11736915_at) / Fold change /veh HIST1H1D (11736915_at) / RFU CASKIN2 (11723855_a_at) / Fold change /veh CASKIN2 (11723855_a_at) / RFU LOC730098 (11760151_x_at) / Fold change /veh LOC730098 (11760151_x_at) / RFU OR4N2 (11742367_at) / Fold change /veh OR4N2 (11742367_at) / RFU PRRT2 (11749266_a_at) / Fold change /veh PRRT2 (11749266_a_at) / RFU SNX32 (11753110_a_at) / Fold change /veh SNX32 (11753110_a_at) / RFU CDHR5 (11726645_a_at) / Fold change /veh CDHR5 (11726645_a_at) / RFU RCAN1 (11760418_a_at) / Fold change /veh RCAN1 (11760418_a_at) / RFU FAM167A (11723789_a_at) / Fold change /veh FAM167A (11723789_a_at) / RFU FAM26E (11764081_at) / Fold change /veh FAM26E (11764081_at) / RFU ISYNA1 (11749810_s_at) / Fold change /veh ISYNA1 (11749810_s_at) / RFU ACY1 (11761880_at) / Fold change /veh ACY1 (11761880_at) / RFU 11764098_at / Fold change /veh 11764098_at / RFU SAMD14 (11745864_x_at) / Fold change /veh SAMD14 (11745864_x_at) / RFU NPB (11741838_a_at) / Fold change /veh NPB (11741838_a_at) / RFU TMPRSS6 (11731388_a_at) / Fold change /veh TMPRSS6 (11731388_a_at) / RFU KRTAP10-2 (11738614_at) / Fold change /veh KRTAP10-2 (11738614_at) / RFU ARHGAP8 /// PRR5-ARHGAP8 (11727945_x_at) / Fold change /veh ARHGAP8 /// PRR5-ARHGAP8 (11727945_x_at) / RFU KRTAP5-7 /// NADSYN1 (11734609_at) / Fold change /veh KRTAP5-7 /// NADSYN1 (11734609_at) / RFU RASL12 (11751679_a_at) / Fold change /veh RASL12 (11751679_a_at) / RFU CDKN2B (11736163_a_at) / Fold change /veh CDKN2B (11736163_a_at) / RFU PRF1 (11729649_at) / Fold change /veh PRF1 (11729649_at) / RFU, ZNF638 /// ZNF638-IT1 / Fold change vs veh, ZNF638 /// ZNF638-IT1 / RFU, PANK3 / Fold change vs veh, PANK3 / RFU, SH3YL1 / Fold change vs veh, SH3YL1 / RFU, ZEB2 / Fold change vs veh, ZEB2 / RFU, NRIP1 / Fold change vs veh, NRIP1 / RFU, PTTG1IP / Fold change vs veh, PTTG1IP / RFU, CAPN2 / Fold change vs veh, CAPN2 / RFU, MED14 / Fold change vs veh, MED14 / RFU, SNORA58 / Fold change vs veh, SNORA58 / RFU, C1orf63 / Fold change vs veh, C1orf63 / RFU, LRRFIP1 / Fold change vs veh, LRRFIP1 / RFU, NDUFAF7 / Fold change vs veh, NDUFAF7 / RFU, SLC12A2 / Fold change vs veh, SLC12A2 / RFU, IBTK / Fold change vs veh, IBTK / RFU, ESF1 / Fold change vs veh, ESF1 / Fold change vs veh, TMEM50B / RFU, TAOK1 / Fold change vs veh, TAOK1 / RFU, ACBD3 / Fold change vs veh, ACBD3 / RFU, TMA16 / Fold change vs veh, TMA16 / RFU, RWDD3 / Fold change vs veh, RWDD3 / RFU, BCAT1 / Fold change vs veh, BCAT1 / RFU, EDEM3 / Fold change vs veh, EDEM3 / RFU, TMEM33 / Fold change vs veh, TMEM33 / RFU, WDR75 / Fold change vs veh, WDR75 / RFU, AHCTF1 / Fold change vs veh, AHCTF1 / RFU, TFRC / Fold change vs veh, TFRC / RFU, ZDHHC17 / Fold change vs veh, ZDHHC17 / RFU, NOM1 / Fold change vs veh, NOM1 / RFU, ARL8B / Fold change vs veh, ARL8B / RFU, ZBTB11 / Fold change vs veh, ZBTB11 / RFU, TAMM41 / Fold change vs veh, TAMM41 / RFU, KIAA1704 /// LOC100996395 / Fold change vs veh, KIAA1704 /// LOC100996395 / RFU, ING1 / Fold change vs veh, ING1 / RFU, TRMT61B / Fold change vs veh, TRMT61B / RFU, FUBP3 / Fold change vs veh, FUBP3 / RFU, TP53 / Fold change vs veh, TP53 / RFU, TNKS2 / Fold change vs veh, TNKS2 / RFU, ZFP14 / Fold change vs veh, ZFP14 / RFU, ACTR2 / Fold change vs veh, ACTR2 / RFU, PPP3R1 / Fold change vs veh, PPP3R1 / RFU, PIK3R1 / Fold change vs veh, PIK3R1 / RFU, HNRNPA1 / Fold change vs veh, HNRNPA1 / RFU, RNF170 / Fold change vs veh, RNF170 / RFU, ZNF28 / Fold change vs veh, ZNF28 / RFU, RNGTT / Fold change vs veh, RNGTT / RFU, OGT / Fold change vs veh, OGT / RFU, BRD1 / Fold change vs veh, BRD1 / RFU, MARS / Fold change vs veh, MARS / RFU, ZNF655 / Fold change vs veh, ZNF655 / RFU, FAHD1 / Fold change vs veh, FAHD1 / RFU, BDP1 / Fold change vs veh, BDP1 / RFU, LRRCC1 / Fold change vs veh, LRRCC1 / RFU, ARID1A / Fold change vs veh, ARID1A / RFU, ZNF146 / Fold change vs veh, ZNF146 / RFU, ZNF330 / Fold change vs veh, ZNF330 / RFU, GPN3 / Fold change vs veh, GPN3 / RFU, C9orf123 / Fold change vs veh, C9orf123 / RFU, N4BP2L2 / Fold change vs veh, N4BP2L2 / RFU, ARFIP1 / Fold change vs veh, ARFIP1 / RFU, FAM179B / Fold change vs veh, FAM179B / RFU, BCL10 / Fold change vs veh, BCL10 / RFU, UHRF1BP1L / Fold change vs veh, UHRF1BP1L / RFU, BET1 / Fold change vs veh, BET1 / RFU, CNOT2 / Fold change vs veh, CNOT2 / RFU, ZNF268 / Fold change vs veh, ZNF268 / Fold change vs veh, ZNF507 / RFU, DGCR2 / Fold change vs veh, DGCR2 / RFU, WDSUB1 / Fold change vs veh, WDSUB1 / Fold change vs veh, HSP90B1 /// MIR3652 / RFU, ADSS / Fold change vs veh, ADSS / RFU, GK / Fold change vs veh, GK / RFU, ZNF148 / Fold change vs veh, ZNF148 / RFU, TAF9 / Fold change vs veh, TAF9 / RFU, SLC1A5 / Fold change vs veh, SLC1A5 / RFU, SLMO2 / Fold change vs veh, SLMO2 / RFU, ABCC4 / Fold change vs veh, ABCC4 / RFU, LOC101060439 /// RAP1B / Fold change vs veh, LOC101060439 /// RAP1B / RFU, RFX7 / Fold change vs veh, RFX7 / RFU, GTPBP10 / Fold change vs veh, GTPBP10 / RFU, CNEP1R1 / Fold change vs veh, CNEP1R1 / RFU, BIVM-ERCC5 /// ERCC5 / Fold change vs veh, BIVM-ERCC5 /// ERCC5 / RFU, ILF3 / Fold change vs veh, ILF3 / RFU 11762660_at / Fold change /veh 11762660_at / RFU VCAN (11757783_s_at) / Fold change /veh VCAN (11757783_s_at) / RFU DDX43 (11728927_at) / Fold change /veh DDX43 (11728927_at) / RFU KRT8 (11758188_x_at) / Fold change /veh KRT8 (11758188_x_at) / RFU NKD1 (11759106_at) / Fold change /veh NKD1 (11759106_at) / RFU SRD5A1 (11742802_a_at) / Fold change /veh SRD5A1 (11742802_a_at) / RFU TPSAB1 /// TPSB2 (11721975_s_at) / Fold change /veh TPSAB1 /// TPSB2 (11721975_s_at) / RFU GSTM3 (11746129_a_at) / Fold change /veh GSTM3 (11746129_a_at) / RFU IL23R (11737362_x_at) / Fold change /veh IL23R (11737362_x_at) / RFU TMEM51 (11727254_a_at) / Fold change /veh TMEM51 (11727254_a_at) / RFU PIWIL2 (11732686_x_at) / Fold change /veh PIWIL2 (11732686_x_at) / RFU ORM1 (11744905_x_at) / Fold change /veh ORM1 (11744905_x_at) / RFU CCDC152 (11743942_at) / Fold change /veh CCDC152 (11743942_at) / RFU ECM1 (11717891_a_at) / Fold change /veh ECM1 (11717891_a_at) / RFU IL23R (11748794_a_at) / Fold change /veh IL23R (11748794_a_at) / RFU TNFAIP8L3 (11732012_x_at) / Fold change /veh TNFAIP8L3 (11732012_x_at) / RFU MBOAT4 (11741988_at) / Fold change /veh MBOAT4 (11741988_at) / RFU 11764193_at / Fold change /veh 11764193_at / RFU TMEM53 (11763286_at) / Fold change /veh TMEM53 (11763286_at) / RFU MAGEB2 (11727129_at) / Fold change /veh MAGEB2 (11727129_at) / RFU TMEM200A (11744735_a_at) / Fold change /veh TMEM200A (11744735_a_at) / RFU CCDC152 (11751479_a_at) / Fold change /veh CCDC152 (11751479_a_at) / RFU FAM211A (11726209_a_at) / Fold change /veh FAM211A (11726209_a_at) / RFU RGS16 (11746705_a_at) / Fold change /veh RGS16 (11746705_a_at) / RFU VCAN (11755009_s_at) / Fold change /veh VCAN (11755009_s_at) / RFU RHOB (11743442_s_at) / Fold change /veh RHOB (11743442_s_at) / RFU RGS16 (11720943_a_at) / Fold change /veh RGS16 (11720943_a_at) / RFU RGS16 (11720944_at) / Fold change /veh RGS16 (11720944_at) / RFU, VPS4B / Fold change vs veh, VPS4B / RFU, CREB1 / Fold change vs veh, CREB1 / RFU, DNAJC13 / Fold change vs veh, DNAJC13 / RFU, GNAQ / Fold change vs veh, GNAQ / RFU, CDK5R1 / Fold change vs veh, CDK5R1 / RFU, ZRANB3 / Fold change vs veh, ZRANB3 / RFU, CUL4A / Fold change vs veh, CUL4A / RFU, CCNY / Fold change vs veh, CCNY / RFU, UFL1 / Fold change vs veh, UFL1 / RFU, COG3 / Fold change vs veh, COG3 / RFU, DIAPH2 / Fold change vs veh, DIAPH2 / RFU, SKA2 / Fold change vs veh, SKA2 / RFU, AFF3 / Fold change vs veh, AFF3 / RFU, LMF1 / Fold change vs veh, LMF1 / RFU, IPO11 / Fold change vs veh, IPO11 / RFU, DFFB / Fold change vs veh, DFFB / RFU, FOXP1 / Fold change vs veh, FOXP1 / RFU, CARD8 / Fold change vs veh, CARD8 / RFU, STRN3 / Fold change vs veh, STRN3 / RFU, ADK / Fold change vs veh, ADK / RFU, RASSF2 / Fold change vs veh, RASSF2 / RFU, WIPF1 / Fold change vs veh, WIPF1 / RFU, LARP1B / Fold change vs veh, LARP1B / RFU, RASA1 / Fold change vs veh, RASA1 / RFU, RB1 / Fold change vs veh, RB1 / RFU, PPFIA1 / Fold change vs veh, PPFIA1 / RFU, MAT2A / Fold change vs veh, MAT2A / RFU, CCT5 / Fold change vs veh, CCT5 / RFU, WDR92 / Fold change vs veh, WDR92 / RFU, CUX1 / Fold change vs veh, CUX1 / RFU, TTC7A / Fold change vs veh, TTC7A / RFU, TMEM135 / Fold change vs veh, TMEM135 / RFU, DEPTOR / Fold change vs veh, DEPTOR / RFU, CPM / Fold change vs veh, CPM / RFU, DNAJB6 / Fold change vs veh, DNAJB6 / RFU, CACNA2D3 / Fold change vs veh, CACNA2D3 / RFU, DTX4 / Fold change vs veh, DTX4 / RFU, TFCP2 / Fold change vs veh, TFCP2 / RFU, GMCL1 /// GMCL1P1 / Fold change vs veh, GMCL1 /// GMCL1P1 / RFU, AEBP2 / Fold change vs veh, AEBP2 / RFU, SNHG1 /// SNORD22 /// SNORD25 /// SNORD26 /// SNORD27 /// SNORD28 /// SNORD29 /// SNORD31 / Fold change vs veh, SNHG1 /// SNORD22 /// SNORD25 /// SNORD26 /// SNORD27 /// SNORD28 /// SNORD29 /// SNORD31 / Fold change (Aza/veh), C12orf56 (ProbeSet 11735607_a_at) / Fold change (ACY-1035/veh), C12orf56 (ProbeSet 11735607_a_at) / Fold change (Aza/veh), FGFR1OP (ProbeSet 11751329_s_at) / Fold change (ACY-1035/veh), FGFR1OP (ProbeSet 11751329_s_at) / Fold change (Aza/veh), VPS36 (ProbeSet 11739960_a_at) / Fold change (ACY-1035/veh), VPS36 (ProbeSet 11739960_a_at) / RFU SYPL1 (11715823_x_at) / Fold change /veh SYPL1 (11715823_x_at) / RFU IGFBP7 (11715501_s_at) / Fold change /veh IGFBP7 (11715501_s_at) / RFU REEP3 (11722064_at) / Fold change /veh REEP3 (11722064_at) / RFU IGLL1 (11728026_x_at) / Fold change /veh IGLL1 (11728026_x_at): dose or concentration left out as unconfirmed
Settings: ProbeSet 11746640_a_at; LIST D

Compound: Nc1ncn([C@@H]2O[C@H](CO)[C@@H](O)[C@H]2O)c(=O)n1 [azacitidine]
- Fold change vs veh, RASSF2: 0.77
